The values below come from US4347323A, “Glycerol kinase from Streptomyces canus” (Toyo Jozo Kabushiki Kaisha, priority 1979, dated 1982).

Entries after “also recorded” stand apart in the source; their conditions may differ. Read-outs that look alike come from different tables or passages of the source.

For test [1], the system named is glycerol kinase (GK) produced by Streptomyces canus A 2408. Kind of test: Effect of metal ions and p-chloromercuribenzoate (PCMB). Type of test: biochemical. The text has this: Effect of metal ions and p-chloromercuribenzoate (PCMB)
The test system is the same in test [2]. Kind of test: Specific activity for nucleotide. It is filed as biochemical. Particulars: for Relative activity (%): 10 mM ATP replaced by the nucleotide, formed glycero-3-phosphate measured. The method, then: (ii) specific activity for nucleotide:
In assay method (i) hereinabove, 10 mM ATP is replaced by CTP, ITP, GTP and UTP and measures the formed glycero-3-phosphate.

The subject of test [3] is Escherichia coli GK (E.Co-GK). Particulars: cited from earlier work.
Test [4] relates to glycerol kinase (GK) produced by Streptomyces canus A 2408. Kind of test: Substrate specificity for glycerol, dihydroxyacetone phosphate and D-glyceraldehyde (ADP assay). Particulars: for Relative activity: substrate 0.1 M, 0.05 ml, 37° C. for 10 minutes, ADP assayed at 550 nm. It is filed as biochemical. How it is done: (i) specificity for glycerol, dihydroxyacetone phosphate and D-glyceraldehyde: […]
The reaction mixture (0.95 ml) is preincubated at 37° C. for 3 minutes, and the enzyme solution (dissolved in 10 mM phosphate buffer, pH 7.5, 0.05 ml) is added thereto. Then the mixture is incubated at 37° C. for 10 minutes. The reaction is stopped by boiling for 3 minutes. After cooling to 37° C., the amount of ADP is assayed. ADP is assayed by adding an ADP-assay solution (2.0 ml) comprising the following mixture: […]
The reaction mixture is incubated at 37° C. for 15 minutes. Color formation is measured at 550 nm to calculate the substrate specificity.

For test [5] the test system is unchanged. Kind of test: Km value of GK for its substrates. It is filed as biochemical. The method, then:
The above mixture (1 ml) is preincubated at 37° C. for 5 minutes and GK solution (50 μl) [diluted with GL-buffer (10 mM phosphate buffer containing 10 mM glycerol, pH 7.5)] is added thereto and incubated at 37° C. for 10 minutes.
One unit of GK is defined as liberating […] of glycero-3-phosphate per minute.
Enzyme activity is calculated by the following equation: [formula]

For test [6], the system named is pigeon heart GK (Pig.-GK). Particulars: cited from earlier work.

As for `[Cl-].[Cl-].[Mg+2]` [MgCl2], the “Effect of metal ion on GK activity (in words)” value (shortened to “Effect of metal ion”) in test [1] is “activated”. In addition, in test [1] (reagent 1.0 mM), the “Relative Activity (%) with 1 mM Mg++” value is 100% and the “Relative Activity (%) without Mg++” value amounted to 100%.

As to `O=c1[nH]cnc2c1ncn2[C@@H]1O[C@H](COP(=O)(O)OP(=O)(O)OP(=O)(O)O)[C@@H](O)[C@H]1O` [ITP], the “Relative activity (%)” value in test [2] was 47%.

For the molecule `O=c1ccn([C@@H]2O[C@H](COP(=O)(O)OP(=O)(O)OP(=O)(O)O)[C@@H](O)[C@H]2O)c(=O)[nH]1` [UTP], the “Relative activity (%)” value in test [2] worked out at 18%.

As for dihydroxyacetone phosphate, the “activity for dihydroxyacetone phosphate as compared with glycerol” value in test [3] is “nearly twice”.

Turning to `O=C(O)c1cc[c]([Hg][Cl])cc1` [PCMB, p-chloromercuribenzoate], the “Inhibition of GK activity by PCMB (in words)” value in test [1] (7.5×10^-6 M of PCMB) is reported as “completely inhibits”. In addition, the “Relative Activity (%) with 1 mM Mg++” value was found to be 13% in test [1] (PCMB 5.0 × 10^-6 M) and 0% in test [1] (PCMB 7.5 × 10^-6 M).

With `Nc1ccn([C@@H]2O[C@H](COP(=O)(O)OP(=O)(O)OP(=O)(O)O)[C@@H](O)[C@H]2O)c(=O)n1` [CTP], in test [2], the “nucleotide specificity (in words)” value is “especially high specificity” and the “Relative activity (%)” value is 92%.

Regarding `[Ca+2].[Cl-].[Cl-]` [CaCl2], the “Effect of metal ion” value in test [1] is recorded as “inhibited”. Also, in test [1] (reagent 1.0 mM), the “Relative Activity (%) with 1 mM Mg++” value is on record as 54% and the “Relative Activity (%) without Mg++” value is on record as 0%.

`OCC(O)CO` [glycerol]: the “substrate specificity (in words)” value in test [4] (glycerol versus dihydroxyacetone phosphate) was “higher specificity”. Also, the Relative activity in test [4] came to 100%. The Km in test [5] amounted to 48 µM.

For `Nc1ncnc2c1ncn2[C@@H]1O[C@H](COP(=O)(O)OP(=O)(O)OP(=O)(O)O)[C@@H](O)[C@H]1O` [ATP], in test [3], the “nucleotide specificity (in words)” value was “acts only for ATP”. Also, in test [5], the Michaelis constant (Km) was determined as 200 µM. Moreover, in test [2], the “nucleotide specificity (in words)” value is “especially high specificity” and the “Relative activity (%)” value stood at 100%.

For the molecule `[Cl][Mn][Cl]` [MnCl2], the “use as divalent metal ion (in words)” value in test [6] is given as “can be used”. Also, the “Effect of metal ion” value in test [1] (listed as Mn++) is recorded as “inhibited; also recorded: strongly inhibits”. Moreover, in test [1] (reagent 1.0 mM), the “Relative Activity (%) with 1 mM Mg++” value was 14% and the “Relative Activity (%) without Mg++” value is on record as 6%. Moreover, in test [3], the “use as divalent metal ion (in words)” value was “can be used”.

`O=C[C@H](O)CO` [D-glyceraldehyde] returned a Relative activity in test [4] of 20%. Also, the Km in test [5] came out at 350 µM.

Turning to `Nc1nc2c(ncn2[C@@H]2O[C@H](COP(=O)(O)OP(=O)(O)OP(=O)(O)O)[C@@H](O)[C@H]2O)c(=O)[nH]1` [GTP], the “Relative activity (%)” value in test [2] was 19%.

With `O=C(CO)CO` [dihydroxyacetone], the Relative activity in test [4] came to 74%. The Km in test [5] is 660 µM.

In general, Km refers to the substrate concentration at which the rate is half of its maximum.
